# Reference: patent US11331396B2, “Development of injectable fiducial markers for image guided radiotherapy with dual MRI and CT visibility” (TECHNICAL UNIVERSITY OF DENMARK, priority 2017, dated 2022)
# Assay: In-vitro confocal microscopy of markers containing fluorescent amphiphiles in PBS
# Assay type: physicochemical
# Details: LAP:GTH with co-solvent (5% PC or 10% EtOH)
# Procedure: DOPE-RhB was dissolved in EtOH or triglycerides and added to the formulations in amounts resulting in the desired final concentrations (˜1.3*10^−3 ug/uL) in formulations consisting of lactose acetate:propionate 1:1/lactose isobutyrate co-formulated with either 25 wt % EtOH or 40 wt % triglyceride (GTO/GTH), with or without 10 wt % EtOH or 5 wt % PC (˜240 uL formulations in total). The DOPE-RhB solutions were made from a motherstock of 1 mg/mL DOPE-RhB in EtOH with serial dilution into EtOH/triglyceride (GTO/GTH). The injected formulations were imaged in PBS in 8-well microscope slides under the confocal microscope. […]
# Laser Scanning Confocal Microscopy was performed using a Leica TCS SP5 Scanning Laser Confocal Microscope operated using a 61× wet objective and a 561 nm excitation DPPS Laser. Samples (˜5-10 uL) were prepared in 8 well microscope slides containing PBS buffer and imaged on the same day to study the distribution of fluorescence signal within the material. In case of Rhodamine B, emission was detected between 575 and 674 nm, while in case of carboxy fluorescein emission was detected between 480 and 580 nm. […]
smiles,measurement,value
CCCCCCCC/C=C\CCCCCCCC(=O)OC[C@H](COP(=O)(O)OCCNC(=O)c1ccc2c(c1)C(=O)OC21c2ccc(O)cc2Oc2cc(O)ccc21)OC(=O)CCCCCCC/C=C\CCCCCCCC.N.N [DOPE-CF],Distribution of fluorophore labeled lipid in the marker,clearly higher distribution of DOPE-RhB and DOPE-CF in the rim of the injected formulation
